Experimental data taken from patent US9487749B2 (priority 2009, dated 2016).
“And” between values parts separate entries of the source, which are not always exact repeats. Identical values can stand only once. “Also recorded” adds a separate entry of the source.

Tests used:
[1] = system: Aspergillus niger; assay: USP <51> AET in cosmetic cream / cosmetic compositions, 28 days; format: cell-based; details: 10% MSM in cosmetic cream without preservative, 48 hrs-28 days
Excerpt: (§1) The cosmetic cream matrix into which the MSM was incorporated was preservative free. An additional cream, with a preservative, was also spiked with E. coli and evaluated.

[2] = system: Candida albicans; assay: as above; format: cell-based; details: for Microbial growth (count): 48 hrs-28 days; for Log Reduction from Initial Microorganism Inoculum: 14 Days, 28 Days
Excerpt: as §1

[3] = system: Escherichia coli; assay: as above; format: cell-based; details: for Microbial growth (count): 48 hrs-28 days; for Log Reduction from Initial Microorganism Inoculum: 14 Days, 28 Days
Excerpt: as §1

[4] = system: Pseudomonas aeruginosa; assay: as above; format: cell-based; details: for Microbial growth (count): 48 hrs-28 days; for Log Reduction from Initial Microorganism Inoculum: 14 Days, 28 Days
Excerpt: as §1

[5] = system: Staphylococcus aureus; assay: as above; format: cell-based; details: for Log Reduction from Initial Microorganism Inoculum: 14 Days, 28 Days
Excerpt: as §1

[6] = system: Bacillus coagulans; assay: Bacillus coagulans growth in simulated gastric acid supplemented with MSM; format: cell-based; details: simulated gastric acid pH 1.2
[7] = system: normal flora found in the milks; assay: Growth of non-probiotic microorganisms in Acidophilus milk (standard plate counts); format: cell-based
Description: 31, 2013. […] The Acidophilus milk was low fat (Darigold). […] This was performed to look at how MSM would affect the normal flora found in the milks. Day 0 was the day the samples were setup for the start of the study. The Acidophilus plus Bifidus milk started with a higher count at Day 0 than what is typically expected. This caused the end values to be elevated. The Acidophilus milk product at Day 0 was at expected values. The Acidophilus milk maintained adequate growth rates through out the study and were equivalent to typical growth rates seen in milk products.

[8] = system: ATCC strain 8739 Escherichia coli; assay: Bromcresol Purple colour change with E. coli; format: cell-based
Description: Bromcresol Purple is an indicator dye that turns yellow in the presence of E. coli bacteria. […] All concentrations were plated out to 10^−7 dilutions to ascertain the log reduction.
Flake OptiMSM was weighed out using a certified Mettler Toledo AG245 balance SN: 1115210833 and aliquoted for each concentration. […] Tubes were cooled to room temperature which was approximately 20° C. All tubes were then spiked with the same dilution of Escherichia coli that gave a level of colony forming units at 6.0×10^6/mL (6.8). The tubes were then incubated at 25° C. Daily observation for color change was performed during the first seven days. The tubes were mixed periodically to ensure that the OptiMSM was well equilibrated at all times. A positive and negative control was ascertained.

[9] = system: Rhinovirus type 14 (ATCC #VR-284); format: cell-based
[10] = system: MDCK cells (ATCC # CCL-34); assay: Cytotoxicity of MSM on host cells; details: for Test Product Cytotoxicity: MDCK
Description: Determination of test product cytotoxicity. The highest non-cytotoxic concentration of the test product was determined prior to the test.
B. Toxicity Control for Pre-Treatment Test.

[11] = system: Escherichia coli (ATCC strain 8739); assay: E. coli growth profile in sterile and non-sterile MSM in TSB or saline (USP <51> AET basis, MacConkey agar streak); details: for Growth profile of E. coli: 5-16% MSM
Description: The USP <51> AET is a compendial (United States Pharmacopeia) antimicrobial effectiveness test method for determining if a preservative is effective based upon a verified and validated methodology.
All tubes except the negative controls were spiked with 250 μl of a 1.2×10^8 culture, which yields an initial E. coli population density of 1.2×10^6/mL. Tubes were incubated at 25° C.

[12] = 10% MSM in cosmetic cream without preservative
[13] = 10% MSM in preservative-free jojoba cosmetic cream
[14] = 10% MSM, Preservative Free Cosmetic Composition #1
[15] = 10% MSM, Preservative Free Cosmetic Composition #2
[16] = 10% MSM in Preservative Free Cosmetic Composition #1, 48 hours after inoculation
[17] = 10% MSM in Preservative Free Cosmetic Composition #1, 7 days after inoculation

## CS(C)(=O)=O [MSM, Methylsulfonylmethane]
[1]; 48 hours after inoculation
  Microbial growth (count): 8 × 10^3
[1]; 14 days after inoculation
  Microbial growth (count): 6 × 10^3
[1]; 28 days after inoculation
  Microbial growth (count): 5 × 10^2
[2]; 10% MSM in Preservative Free Cosmetic Composition #2, after 48 hours incubation
  Microbial growth (count): 9.0 × 10^2
[2]; 10% MSM in Preservative Free Cosmetic Composition #2, after 7 days incubation
  Microbial growth (count): <10
[2]; [12]
  Microbial growth (count): <10
[2]; [13]
  Log Reduction from Initial Microorganism Inoculum: 4.3 log
[2]; [14]
  Log Reduction from Initial Microorganism Inoculum: 5.3 log
[2]; [15]
  Log Reduction from Initial Microorganism Inoculum: 5.3 log
[3]; [16]
  Microbial growth (count): 5.4 × 10^4
[3]; [17]
  Microbial growth (count): <10
[3]; [12]
  Microbial growth (count): <10
[3]; [13]
  Log Reduction from Initial Microorganism Inoculum: 5.7 log
[3]; [14]
  Log Reduction from Initial Microorganism Inoculum: 5.8 log
[3]; [15]
  Log Reduction from Initial Microorganism Inoculum: 5.8 log
[4]; [16]
  Microbial growth (count): 7.3 × 10^3
[4]; [17]
  Microbial growth (count): <10
[4]; [12]
  Microbial growth (count): <10
[4]; [13]
  Log Reduction from Initial Microorganism Inoculum: 5.3 log
[4]; [14]
  Log Reduction from Initial Microorganism Inoculum: 5.8 log
[4]; [15]
  Log Reduction from Initial Microorganism Inoculum: 5.8 log
[5]; 10% MSM in cosmetic cream without preservative, 48 hrs-28 days
  Microbial growth (count): <10
[5]; [13]
  Log Reduction from Initial Microorganism Inoculum: 5.6 log
[5]; [14]
  Log Reduction from Initial Microorganism Inoculum: 5.7 log
[5]; [15]
  Log Reduction from Initial Microorganism Inoculum: 5.7 log
[6]; 5% MSM, hour 0
  Log Growth of Bacillus coagulans average: 0.26 log
[6]; 5% MSM, hour 3
  Log Growth of Bacillus coagulans in duplicate: 0 log
  Log Growth of Bacillus coagulans average: 0 log
[6]; 5% MSM, hour 6
  Log Growth of Bacillus coagulans in duplicate: 0 log
  Log Growth of Bacillus coagulans average: 0 log
[6]; 5% MSM, hour 9
  Log Growth of Bacillus coagulans in duplicate: 0 log
  Log Growth of Bacillus coagulans average: 0 log
[6]; 5% MSM, hour 12
  Log Growth of Bacillus coagulans in duplicate: 0 log
  Log Growth of Bacillus coagulans average: 0 log
[6]; 5% MSM, hour 15
  Log Growth of Bacillus coagulans average: 0.26 log
[6]; 5% MSM, hour 24
  Log Growth of Bacillus coagulans in duplicate: 0 log
  Log Growth of Bacillus coagulans average: 0 log
[6]; 5% MSM, hour 48
  Log Growth of Bacillus coagulans in duplicate: 0 log
  Log Growth of Bacillus coagulans average: 0 log
[6]; […] MSM, hour 0
  Log Growth of Bacillus coagulans in duplicate: 0 log
[6]; […] MSM, hour 3
  Log Growth of Bacillus coagulans in duplicate: 0 log
[6]; […] MSM, hour 9
  Log Growth of Bacillus coagulans in duplicate: 0 log
  Log Growth of Bacillus coagulans average: 0 log
[6]; […] MSM, hour 12
  Log Growth of Bacillus coagulans in duplicate: 0 log
[6]; […] MSM, hour 15
  Log Growth of Bacillus coagulans in duplicate: 0 log
  Log Growth of Bacillus coagulans average: 0 log
[6]; […] MSM, hour 24
  Log Growth of Bacillus coagulans in duplicate: 0 log
  Log Growth of Bacillus coagulans average: 0 log
[6]; […] MSM, hour 48
  Log Growth of Bacillus coagulans in duplicate: 0 log
  Log Growth of Bacillus coagulans average: 0 log
[7]; 5.0% MSM, throughout the study
  growth of normal flora (standard plate counts): did not allow any significant growth
[7]; A/B milk, […] MSM, Day 0
  Growth of non-probiotic microorganisms in Acidophilus Milk: 370 cfu per mL
[7]; A/B milk, […] MSM, Day 3
  Growth of non-probiotic microorganisms in Acidophilus Milk: 480 cfu per mL
[7]; A/B milk, […] MSM, Day 7
  Growth of non-probiotic microorganisms in Acidophilus Milk: 570 cfu per mL
[7]; A/B milk, […] MSM, Day 14
  Growth of non-probiotic microorganisms in Acidophilus Milk: 1460 cfu per mL
[7]; A/B milk, […] MSM, Day 21
  Growth of non-probiotic microorganisms in Acidophilus Milk: 3500 cfu per mL
[7]; A/B milk, […] MSM, Day 28
  Growth of non-probiotic microorganisms in Acidophilus Milk: 110000 cfu per mL
[7]; acidophilus milk, 0.50% MSM, Day 0
  Growth of non-probiotic microorganisms in Acidophilus Milk: 20 cfu per mL and 30 cfu per mL
[7]; acidophilus milk, 0.50% MSM, Day 3
  Growth of non-probiotic microorganisms in Acidophilus Milk: 10 cfu per mL
[7]; acidophilus milk, 0.50% MSM, Day 7
  Growth of non-probiotic microorganisms in Acidophilus Milk: 10 cfu per mL
[7]; acidophilus milk, 0.50% MSM, Day 14
  Growth of non-probiotic microorganisms in Acidophilus Milk: 20 cfu per mL
[7]; acidophilus milk, 0.50% MSM, Day 21
  Growth of non-probiotic microorganisms in Acidophilus Milk: 20 cfu per mL and 40 cfu per mL
[7]; acidophilus milk, 5% MSM, Day 0
  Growth of non-probiotic microorganisms in Acidophilus Milk: 10 cfu per mL and 20 cfu per mL
[7]; acidophilus milk, 5% MSM, Day 3
  Growth of non-probiotic microorganisms in Acidophilus Milk: 10 cfu per mL
[7]; acidophilus milk, 5% MSM, Day 7
  Growth of non-probiotic microorganisms in Acidophilus Milk: 10 cfu per mL and 20 cfu per mL
[7]; acidophilus milk, 5% MSM, Day 14
  Growth of non-probiotic microorganisms in Acidophilus Milk: 20 cfu per mL and 10 cfu per mL
[7]; acidophilus milk, 5% MSM, Day 21
  Growth of non-probiotic microorganisms in Acidophilus Milk: 20 cfu per mL and 10 cfu per mL
[7]; acidophilus milk, 5% MSM, Day 28
  Growth of non-probiotic microorganisms in Acidophilus Milk: 10 cfu per mL
[7]; acidophilus milk, […] MSM, Day 0
  Growth of non-probiotic microorganisms in Acidophilus Milk: 10 cfu per mL
[7]; acidophilus milk, […] MSM, Day 14
  Growth of non-probiotic microorganisms in Acidophilus Milk: <10 cfu per mL
[8]; 5-7% MSM, Day one
  Bromcresol Purple colour of the broth: color change of the broth to yellow
[8]; 8% MSM, listed as order: Day one, Day three
  Bromcresol Purple colour of the broth: slight clearing of color; also recorded: turning to the typical yellow color
[8]; 9% MSM, Day 7
  Bromcresol Purple colour of the broth: turning to a yellow color
[8]; 10%-16% MSM, listed as order: Day 7, Day 30
  Bromcresol Purple colour of the broth: No color change; also recorded: no signs of change
[9]
  Average Log Stimulation: 0.053 log10 and 0.11 log10
  Average Percent Stimulation: 11.49% and 22.38%
  Average TCID50: 4.42 log10 and 5.00 log10 and 5.58 log10 and 5.42 log10 and 5.67 log10 and 5.25 log10
  Log Stimulation: 0.08 log10 and 0.00 log10 and 0.17 log10
  TCID50: 4.25 log10 and 4.50 log10 and 4.75 log10 and 5.00 log10 and 5.25 log10 and 5.50 log10 and 6.00 log10 and 5.75 log10
[10]; 0.5%
  Test Product Cytotoxicity: 00
[10]; 1%
  Test Product Cytotoxicity: 00
[10]; 2%
  Test Product Cytotoxicity: 00
[10]; 3%
  Test Product Cytotoxicity: 00
[10]; 4%
  Test Product Cytotoxicity: 00
[10]; 5%
  Test Product Cytotoxicity: 00
[10]; MSM concentrations 6% through 0.5%
  cytotoxic effect: no visible cytotoxic effect
[11]; 5-9% MSM in TSB/TSBA media, 24 hours
  visual signs of growth in culture tubes: visible signs of growth
[11]; 5-10% MSM in TSB/TSBA, 48 hours, 72 hours
  visual signs of growth in culture tubes: signs of heavy growth
[11]; 10-16% MSM in TSB/TSBA media, 24 hours
  visual signs of growth in culture tubes: no signs of growth
[11]; 11% MSM in TSB/TSBA, 48 hours, 72 hours
  visual signs of growth in culture tubes: Apparent growth
[11]; 12-15% MSM in TSB/TSBA, 48 hours, 72 hours
  visual signs of growth in culture tubes: little to no observable signs of growth
[11]; MSM in saline tubes, 24 hours
  visual signs of growth in culture tubes: did not show any signs of growth
[11]; after 24 hours, NS (sterile saline added to non-sterile MSM)
  Growth profile of E. coli: Heavy; also recorded: Moderate
[11]; after 24 hours, NSA (saline + MSM, then sterilized)
  Growth profile of E. coli: Heavy; also recorded: Moderate
[11]; after 24 hours, TSB (sterile TSB added to non-sterile MSM)
  Growth profile of E. coli: Heavy and Moderate and Few
[11]; after 24 hours, TSBA (TSB + MSM, then sterilized)
  Growth profile of E. coli: Heavy and Moderate and Few
[11]; after 48 hours, NS
  Growth profile of E. coli: Heavy; also recorded: Moderate
[11]; after 48 hours, NSA
  Growth profile of E. coli: Heavy; also recorded: Moderate
[11]; after 48 hours, TSB
  Growth profile of E. coli: Heavy and Moderate and Few
[11]; after 48 hours, TSBA
  Growth profile of E. coli: Heavy and Moderate and Few
[11]; after 72 hours, NS
  Growth profile of E. coli: Heavy; also recorded: Moderate
[11]; after 72 hours, NSA
  Growth profile of E. coli: Heavy; also recorded: Moderate
[11]; after 72 hours, TSB
  Growth profile of E. coli: Heavy and Moderate and Few
[11]; after 72 hours, TSBA
  Growth profile of E. coli: Heavy and Moderate and Few
